# ChEMBL document CHEMBL2074126, “A functional assay for quantitation of the apparent affinities of ligands of P-glycoprotein in Caco-2 cells” (Pharm Res, 2001)
# Assays:
# [1] = molecular target: T1, ATP-dependent translocase ABCB1 (Homo sapiens, UniProt P08183); test: TP_TRANSPORTER: inhibition of Taxol transepithelial transport (basal to apical) (Taxol: 0.8 uM, Probenecid: 1000 u) in Caco-2 cells; assay type: functional, cell-based
# [2] = molecular target: T1, ATP-dependent translocase ABCB1; test: TP_TRANSPORTER: inhibition of Taxol transepithelial transport (basal to apical) in Caco-2 cells; assay type: functional, cell-based
# T1 sequence (P08183 whole entry): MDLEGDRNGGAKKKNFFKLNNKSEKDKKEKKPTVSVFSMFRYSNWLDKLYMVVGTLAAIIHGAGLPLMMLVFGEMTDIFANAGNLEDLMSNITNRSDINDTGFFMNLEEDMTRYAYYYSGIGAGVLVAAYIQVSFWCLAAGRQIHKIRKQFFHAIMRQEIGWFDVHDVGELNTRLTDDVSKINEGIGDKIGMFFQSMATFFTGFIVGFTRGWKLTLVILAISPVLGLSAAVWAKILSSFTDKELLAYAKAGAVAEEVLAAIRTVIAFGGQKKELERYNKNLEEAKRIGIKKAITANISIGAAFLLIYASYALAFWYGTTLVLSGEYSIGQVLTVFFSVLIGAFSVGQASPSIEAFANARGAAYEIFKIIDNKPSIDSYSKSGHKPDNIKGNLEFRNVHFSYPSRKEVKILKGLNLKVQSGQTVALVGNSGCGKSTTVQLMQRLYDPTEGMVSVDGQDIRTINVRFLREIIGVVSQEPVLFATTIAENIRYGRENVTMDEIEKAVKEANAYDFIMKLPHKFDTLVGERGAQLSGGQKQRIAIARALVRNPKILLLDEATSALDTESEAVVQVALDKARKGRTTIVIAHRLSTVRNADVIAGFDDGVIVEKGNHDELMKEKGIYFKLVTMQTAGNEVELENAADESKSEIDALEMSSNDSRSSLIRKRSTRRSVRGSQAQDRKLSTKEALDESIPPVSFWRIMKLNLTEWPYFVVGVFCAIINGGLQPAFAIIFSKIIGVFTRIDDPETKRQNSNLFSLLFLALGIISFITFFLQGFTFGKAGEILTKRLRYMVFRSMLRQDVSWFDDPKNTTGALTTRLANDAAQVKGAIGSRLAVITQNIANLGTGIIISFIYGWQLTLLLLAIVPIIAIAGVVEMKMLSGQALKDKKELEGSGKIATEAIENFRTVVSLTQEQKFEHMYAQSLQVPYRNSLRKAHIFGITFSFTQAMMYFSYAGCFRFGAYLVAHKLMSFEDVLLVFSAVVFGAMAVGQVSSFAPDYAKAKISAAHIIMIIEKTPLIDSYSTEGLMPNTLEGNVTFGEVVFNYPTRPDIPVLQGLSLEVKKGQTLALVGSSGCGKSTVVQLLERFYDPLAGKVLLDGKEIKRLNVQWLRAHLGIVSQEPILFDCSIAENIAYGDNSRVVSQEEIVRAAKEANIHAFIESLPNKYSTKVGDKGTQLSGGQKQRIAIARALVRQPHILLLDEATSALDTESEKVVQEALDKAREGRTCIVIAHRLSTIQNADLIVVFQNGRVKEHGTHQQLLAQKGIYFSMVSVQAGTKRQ
Activity [1],Ki [2],SMILES
is not an inhibitor [-],,CCCN(CCC)S(=O)(=O)c1ccc(C(=O)O)cc1 [PROBENECID]
,8.5 µM,COc1cccc2c1C(=O)c1c(O)c3c(c(O)c1C2=O)C[C@@](O)(C(=O)CO)C[C@@H]3O[C@H]1C[C@H](N)[C@H](O)[C@H](C)O1 [DOXORUBICIN]
,313 µM,CCN(CC)C(=O)Nc1ccc(OCC(O)CNC(C)(C)C)c(C(C)=O)c1 (centres undefined) [CELIPROLOL]
,2.5 µM,COc1cccc2c1C(=O)c1c(O)c3c(c(O)c1C2=O)C[C@@](O)(C(C)=O)C[C@@H]3O[C@H]1C[C@H](N)[C@H](O)[C@H](C)O1 [DAUNORUBICIN]
